Active and inactive are the calls of the source. No cut-off for these calls is given here.

3 compounds from ChEMBL document CHEMBL4665757, “Design and synthesis of dual active neovibsanin derivatives based on a chemical structure merging method” (Bioorg Med Chem Lett, 2020) can be followed below.

Data set [1] concerns PC-12. Put plainly: Induction of neurite outgrowth in rat PC12 cells at 30 uM incubated for 4 days by phase contrast microscopic analysis. It is filed as functional, cell-based. The note with it: time 4.0 day.
In data set [2] the test system is PC-12. Put plainly: Induction of neurite outgrowth in rat PC12 cells at 30 uM incubated for 4 days in presence of NGF by phase contrast microscopic analysis. It is filed as functional, cell-based. The note with it: time 4.0 day.
Data set [3] in a line: Solubility in water. It is filed as physicochemical. The note with it: buffer.
Data set [4] concerns PC-12. Briefly: Induction of neurite outgrowth in rat PC12 cells at 0.3 to 30 uM incubated for 4 days in presence of NGF by phase contrast microscopic analysis. It is filed as functional, cell-based. The conditions noted are these: dose microM 0.3-30, time 4.0 day.

Regarding `COc1ccc(/C=C/[C@@H]2CCC=C[C@H]2c2ccc(OC)c(OC)c2)cc1OC`, in data set [1], the outcome was Active.
As for `COC1(C)C[C@@H]2OCC3=CCCC[C@]32O1` (stereo not given in full), the result in data set [2] was Active.
Consider `COc1ccc(/C=C/[C@@H]2C[C@@]34OC(C)(O)C[C@@H]3OCC4=C[C@H]2c2ccc(OC)c(OC)c2)cc1OC` (mixture of isomers), for which, in data set [3], the solubility entry is on record as “Insoluble”. Moreover, the result in data set [4] and in data set [1] was Active.
